Test results published in publication PMC6934184, “Selective DNA-PKcs inhibition extends the therapeutic index of localized radiotherapy and chemotherapy” (The Journal of Clinical Investigation, 2019).

Molecular target: T1, CDC42 BPB (MRCKB) (Homo sapiens, UniProt Q9Y5S2)
T1 construct: purchased Thermo Fisher Scientific (Life Technologies) SelectScreen
Assay: SelectScreen Z'LYTE
Assay type: biochemical
Procedure, shortened: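 NU5455 was profiled across the SelectScreen Broad panel of kinase activity and binding assays. Z'LYTE reactions such as CSF1R ran at apparent Km ATP, while the Adapta CAMK1 assay used ATP listed as 10. Values are given as percent.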

T1 sequence (Q9Y5S2 whole entry): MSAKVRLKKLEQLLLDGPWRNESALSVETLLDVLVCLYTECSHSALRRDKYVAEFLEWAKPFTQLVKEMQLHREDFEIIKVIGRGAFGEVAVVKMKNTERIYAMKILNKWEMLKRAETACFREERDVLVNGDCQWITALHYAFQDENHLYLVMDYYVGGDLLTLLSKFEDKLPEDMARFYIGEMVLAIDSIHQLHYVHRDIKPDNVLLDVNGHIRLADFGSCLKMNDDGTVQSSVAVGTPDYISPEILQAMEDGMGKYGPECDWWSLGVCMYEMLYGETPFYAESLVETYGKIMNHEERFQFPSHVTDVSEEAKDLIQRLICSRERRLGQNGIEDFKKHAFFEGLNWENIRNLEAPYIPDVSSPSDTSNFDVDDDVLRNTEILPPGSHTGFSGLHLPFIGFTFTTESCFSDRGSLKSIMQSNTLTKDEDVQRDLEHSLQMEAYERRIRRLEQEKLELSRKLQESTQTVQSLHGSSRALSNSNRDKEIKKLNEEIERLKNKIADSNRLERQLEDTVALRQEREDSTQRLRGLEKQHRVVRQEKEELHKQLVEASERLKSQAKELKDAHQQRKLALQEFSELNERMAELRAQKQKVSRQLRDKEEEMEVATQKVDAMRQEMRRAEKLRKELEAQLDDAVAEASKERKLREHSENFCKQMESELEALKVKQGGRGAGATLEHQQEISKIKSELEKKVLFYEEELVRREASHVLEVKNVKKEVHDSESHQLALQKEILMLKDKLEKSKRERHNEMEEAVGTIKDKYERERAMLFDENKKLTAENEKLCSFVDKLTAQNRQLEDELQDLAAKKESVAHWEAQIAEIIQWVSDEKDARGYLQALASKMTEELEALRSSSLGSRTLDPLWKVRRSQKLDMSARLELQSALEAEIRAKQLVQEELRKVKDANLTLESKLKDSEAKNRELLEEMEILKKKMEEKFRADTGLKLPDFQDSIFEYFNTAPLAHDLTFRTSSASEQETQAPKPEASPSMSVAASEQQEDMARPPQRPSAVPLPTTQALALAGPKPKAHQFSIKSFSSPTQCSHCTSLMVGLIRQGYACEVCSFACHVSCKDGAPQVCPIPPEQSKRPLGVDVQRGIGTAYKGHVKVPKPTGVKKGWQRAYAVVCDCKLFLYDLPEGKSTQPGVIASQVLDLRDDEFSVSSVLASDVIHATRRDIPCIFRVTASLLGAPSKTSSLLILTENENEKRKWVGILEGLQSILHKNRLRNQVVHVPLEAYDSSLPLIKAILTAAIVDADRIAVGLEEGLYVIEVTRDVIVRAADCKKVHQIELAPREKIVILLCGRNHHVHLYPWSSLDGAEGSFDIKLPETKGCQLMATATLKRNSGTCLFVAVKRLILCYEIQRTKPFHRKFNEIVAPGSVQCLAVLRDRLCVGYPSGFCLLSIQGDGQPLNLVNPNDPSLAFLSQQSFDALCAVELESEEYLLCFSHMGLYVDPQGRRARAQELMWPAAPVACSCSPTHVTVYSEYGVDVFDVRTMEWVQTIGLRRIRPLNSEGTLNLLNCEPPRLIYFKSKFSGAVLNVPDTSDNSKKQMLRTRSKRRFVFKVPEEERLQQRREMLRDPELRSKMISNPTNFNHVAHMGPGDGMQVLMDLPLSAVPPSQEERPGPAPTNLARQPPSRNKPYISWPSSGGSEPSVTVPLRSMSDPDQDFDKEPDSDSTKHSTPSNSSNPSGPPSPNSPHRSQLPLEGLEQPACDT

CN(C(=O)CN1CCOCC1)c1ccc2sc3c(-c4cccc5c(=O)cc(N6CC7CCC(C6)O7)oc45)cccc3c2c1 [NU5455]
inhibition at 1 µM: -2.5%
